Laboratory results taken from US20100160217A1 (priority 2005, published 2010).

Legend:
[1] = test system: levamisole sensitive nAChR
Procedure: (§1) Electrophysiology was performed as previously described (Richmond and Jorgensen, 1999a).
(§2) To directly examine levamisole sensitive nAChR function, electrophysiological analysis was performed on wild type and unc-74 mutant animals (FIG. 2). Intact body wall muscles of dissected animals were voltage clamped and the amount of current elicited in response to levamisole was measured.

[2] = test system: C. elegans
Procedure: (§3) Pharmacological resistance assays. Plates were equilibrated to room temperature, weighed, and equal volumes of different concentrations of levamisole or aldicarb were added to make plates containing specific concentrations of drug. Once plates dried, they were seeded with a drop of OP50 and incubated overnight at room temperature. A minimum of 15 young adult animals (levamisole) or L4 animals (aldicarb) were placed on drug plates and maintained for two (levamisole) or eight (aldicarb) hours. The percentage of animals on each plate that were paralyzed in response to mild stimulation was determined. Data presented represents the mean +/− SEM of n=number of plates.

[3] = test system: UNC-49/GABAA receptors; assay: Electrophysiology: GABA-induced current in wild type and unc-74 animals; format: cell-based, C. elegans; conditions: unc-74 mutant animals
[4] = test system: C. elegans; assay: Aldicarb resistance assay (paralysis on drug plates); format: in vivo; conditions: unc-74 animals (data not shown)
Procedure: as §3

[5] = test system: nAChRs; conditions: unc-74 animals; reduction not greater than in unc-38 mutants
Procedure: as §1, §2

Q: For `c1ccc([C@H]2CN3CCSC3=N2)cc1` [levamisole], which “inward current elicited by focal pulses of levamisole” value [1] is on record?
A: Its value is “around 200 pA”.

Q: And the levamisole induced current ([1]; unc-74 mutants, voltage clamped muscle cells)?
A: Its levamisole induced current is “completely abolished”.

Q: What about the “resistance to levamisole (paralysis)” value ([2]; unc-74 mutant animals, all concentrations tested, FIG. 1(B)) of the same molecule?
A: Its value is “completely resistant”.

Q: What about the response to levamisole ([2]; unc-74 mutants, concentrations that completely paralyze wild type) of the same molecule?
A: Its response to levamisole is “no response”.

Q: And the “concentration of levamisole at which animals become paralyzed” value ([2]; wild type animals, levamisole resistance curves, FIG. 1(B))?
A: The value was ~0.15 mM.

Q: And the “time to hypercontraction and complete paralysis” value ([2]; wild type animals, solid media, millimolar concentrations of levamisole (0.2 mM), FIG. 1(A))?
A: The value was ~2 h.

Q: Which “GABA induced currents compared with wild type” value [3] does the source give for `NCCCC(=O)O` [GABA] here?
A: Its value is “equivalent”.

Q: `CNC(=O)O/N=C/C(C)(C)SC` [aldicarb] was tested. Which resistance to aldicarb [4] did it give?
A: Its resistance to aldicarb is “only partially resistant”.

Q: For `CN1CCCC1c1cccnc1` (stereo not drawn) [nicotine], which “amplitude of nicotine current relative to wild type” value [5] is on record?
A: The value was “reduced”.
